Measured values as given in PubChem BioAssay AID1645866 (Buhrlage Lab, Dana-Farber Cancer Institute and Novartis …, 2021).
pIC50: −log10 of the molar value. The source made the active and inactive calls.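 The calls were made as follows: active = in confirmatory dose-response testing, peak deubiquitinase inhibition of 30% or more; inactive = the rest.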

What follows are compounds tested against Ubiquitin carboxyl-terminal hydrolase 28 (Homo sapiens) (UniProt Q96RU2) (assay: Ubiquitin-specific peptidase 28 DUB inhibitors, biochemical concentration-dependence assay, validation of primary screening hits (AID 1645866)). Settings: purified USP28, ubiquitin-rhodamine fluorescence, 30 min.
Ubiquitin carboxyl-terminal hydrolase 28 (Homo sapiens), sequence (Q96RU2 whole entry, looked up): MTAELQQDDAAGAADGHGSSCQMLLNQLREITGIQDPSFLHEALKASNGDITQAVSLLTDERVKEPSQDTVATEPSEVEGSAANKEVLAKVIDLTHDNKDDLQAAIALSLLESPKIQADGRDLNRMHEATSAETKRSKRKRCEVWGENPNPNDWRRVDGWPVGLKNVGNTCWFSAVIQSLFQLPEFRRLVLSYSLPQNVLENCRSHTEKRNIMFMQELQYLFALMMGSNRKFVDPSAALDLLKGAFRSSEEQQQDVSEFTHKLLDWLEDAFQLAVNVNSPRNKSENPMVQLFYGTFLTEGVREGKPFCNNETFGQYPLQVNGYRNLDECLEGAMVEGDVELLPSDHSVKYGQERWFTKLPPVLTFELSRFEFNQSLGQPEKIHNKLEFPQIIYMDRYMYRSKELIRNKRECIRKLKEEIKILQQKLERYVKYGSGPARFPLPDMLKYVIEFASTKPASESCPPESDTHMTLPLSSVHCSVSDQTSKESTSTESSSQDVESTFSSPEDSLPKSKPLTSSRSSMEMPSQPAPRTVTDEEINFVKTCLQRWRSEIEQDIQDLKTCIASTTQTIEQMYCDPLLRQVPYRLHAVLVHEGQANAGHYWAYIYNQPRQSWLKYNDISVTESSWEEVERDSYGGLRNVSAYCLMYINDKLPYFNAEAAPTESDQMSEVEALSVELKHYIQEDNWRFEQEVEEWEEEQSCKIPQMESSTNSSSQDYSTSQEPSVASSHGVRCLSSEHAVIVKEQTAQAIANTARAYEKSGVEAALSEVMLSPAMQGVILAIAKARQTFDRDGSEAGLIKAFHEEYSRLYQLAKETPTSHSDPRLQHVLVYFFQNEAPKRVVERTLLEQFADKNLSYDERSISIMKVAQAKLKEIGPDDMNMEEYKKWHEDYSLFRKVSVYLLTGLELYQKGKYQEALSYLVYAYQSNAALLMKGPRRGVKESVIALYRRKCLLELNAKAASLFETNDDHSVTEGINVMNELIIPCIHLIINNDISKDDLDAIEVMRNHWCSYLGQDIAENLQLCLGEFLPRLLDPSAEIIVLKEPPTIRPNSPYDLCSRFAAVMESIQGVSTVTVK

`O=C(Cc1ccccc1F)N1CCC2(CC1)CC1(CO2)Nc2ccccc2-n2cccc21` (stereo unspecified) was tested, and the IC50 was > 50 µM (inactive).
With `CC(=O)c1ccc(NC(=O)c2nc3ccccc3nc2N2CCOCC2)cc1` the IC50 was > 50 µM (inactive).
`O=C(CCCCn1c(=O)c2ccccc2n(CC(=O)Nc2ccc(F)c(Cl)c2)c1=O)NCc1ccco1` was tested, and the IC50 was > 50 µM (inactive).
In the case of `Cc1cc(/C=C2/C(=N)N3C(c4ccccc4)=CSC3=NC2=O)c(C)n1-c1ccc(F)cc1`, the IC50 was > 50 µM (inactive).
In the case of `Cc1ccc(-c2ncc(C(=O)NCc3cccc(C)c3)c(-c3ccncc3)n2)cc1`, the IC50 was > 50 µM (inactive).
`O=C(CCc1nnc2n(Cc3ccc(F)cc3)c(=O)c3ccccc3n12)N1CCN(c2ccccn2)CC1` was tested, and the IC50 was > 50 µM (inactive).
In the case of `C=C(NC(=O)C(=C)NC(=O)c1csc(C2=N[C@@H]3c4csc(n4)[C@H]4NC(=O)c5csc(n5)[C@H]([C@](C)(O)[C@@H](C)O)NC(=O)[C@H]5CSC(=N5)/C(=C/C)NC(=O)C([C@@H](C)O)NC(=O)c5csc(n5)C3(CC2)NC(=O)[C@H](C)NC(=O)C(=C)NC(=O)[C@H](C)NC(=O)C([C@@H](C)CC)N[C@@H]2C=Cc3c(C(C)O)cc(nc3[C@H]2O)C(=O)OC4C)n1)C(N)=O` (stereo partly specified), the IC50 was > 50 µM (inactive).
`COc1ccc(CCNC(=O)[C@H](CCSC)NC(=O)N2CCn3c2nc2ccccc23)cc1OC` was tested, and the IC50 was > 50 µM (inactive).
`Cc1cc(C(=O)N2CCOC3(CC=CCN(CCc4ccccc4)C3=O)C2)n2nccc2n1` (stereo unspecified) was tested, and the IC50 was > 50 µM (inactive).
For `CCN1C[C@@H]2C[C@]2(c2ccccc2OC)C(=O)c2ncccc21`, the IC50 was > 50 µM (inactive).
`Oc1ccc(-c2nc3cnccn3c2NCCc2ccccc2)c(O)c1` was tested, and the IC50 was > 50 µM (inactive).
`CNc1nc2c(c(=O)n1C)CN(C(=O)Nc1cccc3ccccc13)CC2` was tested, and the IC50 was > 50 µM (inactive).
With `CC(CCc1ccccc1)NC(=O)C(=O)c1cn(CC(=O)N2CCOCC2)c2ccccc12` (stereo unspecified) the IC50 was > 50 µM (inactive).
For `Cc1ncncc1C(=O)N1CCCC(C)(c2ncc(Cc3cccc(F)c3)o2)C1` (stereo unspecified), the IC50 was > 50 µM (inactive).
`CCN(C(=O)c1cc2c(Cl)nc3ccccc3c2s1)c1ccccc1F` was tested, and the IC50 was > 50 µM (inactive).
With `O=C(Nc1cc(Cl)ccc1-n1cncn1)c1ccc(S(=O)(=O)N2CCCC2)cc1` the IC50 was > 50 µM (inactive).
`COc1ccc(-n2nnc3c(SCC(=O)Nc4cc(C)on4)ncnc32)cc1` was tested, and the IC50 was > 50 µM (inactive).
For `CC(C)OC(=O)c1cc2c(ccn2C)n1CC(=O)N1CCN(C(=O)c2ccco2)CC1`, the IC50 was > 50 µM (inactive).
With `CN1C(=O)[C@@]23C[C@]4([C@@]56C[C@]78SS[C@](CO)(C(=O)N7[C@@H]5Nc5ccccc56)N(C)C8=O)c5ccccc5N[C@@H]4N2C(=O)[C@]1(CO)SS3` the IC50 was > 50 µM (inactive).
With `O=S(=O)(c1ccccc1Cl)N1CCN(c2ccc3nnc(-c4ccco4)n3n2)CC1` the IC50 was > 50 µM (inactive).
`CCC(C(=O)NCc1ccncc1)N(c1cccc(Cl)c1)S(C)(=O)=O` (stereo unspecified) was tested, and the IC50 was > 50 µM (inactive).
With `COc1ccc(NC(=O)COc2cc(CSc3ccccc3)ncc2OC)cc1` the IC50 was > 50 µM (inactive).
In the case of `Cc1cccc(NC(=O)c2nc(N3CCSCC3)c3cnn(C)c3n2)c1`, the IC50 was > 50 µM (inactive).
In the case of `COc1ccc(C2C(C(=O)C(C)(C)C)N3c4ccccc4C=CC3C23C(=O)c2ccccc2C3=O)c(OC)c1` (stereo unspecified), the IC50 was > 50 µM (inactive).
For `Cc1ccc(-c2ccc(N3CCOCC3)nn2)cc1S(=O)(=O)N1CCOCC1`, the IC50 was > 50 µM (inactive).
For `CCOC(=O)c1cn(C2CC2)c2cc(N3CCNCC3)c([N+](=O)[O-])cc2c1=O`, the IC50 was > 50 µM (inactive).
`Cc1ccc(N=Cc2sc(O)c3ccccc23)c(C)c1` was tested, and the IC50 was > 50 µM (inactive).
With `Cc1ccc2c(c1C)NC(=O)[C@]21[C@@H]2C(=O)N(c3cccc(Cl)c3)C(=O)[C@@H]2[C@@H]2CCCN21` the IC50 was > 50 µM (inactive).

Point of comparison: `CC(C)NC(=O)Cn1ccn2nc(-c3ccc(Cl)cc3)cc2c1=O`, pIC50 5.07. Against it:
- Cn1c(=O)[nH]c(=O)c2c1nc1n(CCc3ccccc3)c(-c3ccccc3)cn21 — 0.70 log units lower, 4.37
- COc1c(O)cc(CC(=O)O)c(C(C)=O)c1O — within 0.2 log units, 4.98
- COc1ccc(OC)c(NC(=O)C2=C(C)Nc3ncnn3C2c2ccccc2OCc2ccc(C)cc2)c1 (stereo unspecified) — 0.37 log units lower, 4.70
- CCn1c(SCC(=O)N2c3ccccc3CC2C)nnc1-c1ccc2c(c1)OCCO2 (stereo unspecified) — 0.60 log units lower, 4.47
- Cn1c2ccccc2c(=O)c2c(=O)n(Cc3ccccc3)c(-c3ccccc3F)nc21 — 1.90 log units higher, 6.97
- Cc1ccc(NC(=O)Cn2c(Nc3cccc(C)c3)nc(C)cc2=O)cc1 — 0.47 log units lower, 4.60
- CCn1cc2c(n1)c(=O)n(Cc1ccc(C)cc1)c(=O)n2CC(=O)Nc1ccc(F)cc1 — within 0.2 log units, 4.96
- Cc1cc(C)n2nc(CNc3cccc(Cl)c3)nc2n1 — 0.29 log units lower, 4.78
- COc1cccc2cc(C(=O)Nc3ccc4c(c3)OCCO4)oc12 — within 0.2 log units, 5.01
- Cc1ccc(NC(=O)Cn2cc(S(=O)(=O)N3CCCC3)ccc2=O)cc1 — 0.31 log units lower, 4.76
- CSc1ncccc1C(=O)NC1(O)C(=O)c2ccccc2C1=O — 0.53 log units lower, 4.54
- O=C(/C=C/C=C/C=C/C1CCCCC1)NC1=C[C@@](O)(/C=C/C=C/C=C/C(=O)NC2=C(O)CCC2=O)[C@@H]2O[C@@H]2C1=O — 0.37 log units higher, 5.44
- Oc1ccc(-c2nc3ccc(Cl)cn3c2NC2CCCCC2)cc1 — 0.43 log units lower, 4.64
- O=C1COc2ccccc2N1Cc1noc(-c2ccccc2)n1 — 0.27 log units higher, 5.34
- Cc1c(-c2ccc(C#N)cc2)oc2ccc(Br)cc2c1=O — 0.67 log units higher, 5.74
- O=C(CCc1ccc(S(=O)(=O)N2CCOCC2)cc1)Nc1ccc2c(c1)OCCO2 — within 0.2 log units, 4.88
- CS(=O)(=O)N1CCCc2cc(C(=O)Nc3ccc(Oc4ccccc4)cc3)ccc21 — within 0.2 log units, 4.90
- CCOc1ccc(CCNC(=O)c2ccc3c(c2)N(CC)C(=O)c2ccccc2S3)cc1OCC — 0.65 log units higher, 5.72
- O=c1[nH]c2ccc(S(=O)(=O)Nc3ccc(O)c4ccccc34)cc2[nH]1 — 0.37 log units lower, 4.70
- Cc1c(CC(=O)N2CCN(c3ncccn3)CC2)c(=O)oc2cc(O)ccc12 — 0.43 log units lower, 4.64
- CCc1cc(=O)n(CC(=O)Nc2cc(C)ccc2OC)c(N2CCOCC2)n1 — 0.49 log units lower, 4.58
- Cc1ccc(Cn2nnc(-c3noc(-c4ccc[nH]4)n3)c2C)cc1 — within 0.2 log units, 4.94
- O=C(CSc1ccc(-c2cccc([N+](=O)[O-])c2)nn1)Nc1cccc(F)c1 — 0.58 log units higher, 5.65
- COc1ccc(Nc2nc(C(=O)NCc3ccc4c(c3)OCO4)cc3occc23)cc1 — 0.24 log units higher, 5.31
- O=C(/C=C/c1c(F)cccc1Cl)N1CCc2ccccc2C1 — 0.63 log units lower, 4.44
- COc1ccc(N(CC(=O)Nc2cccc(F)c2)S(=O)(=O)c2ccc(OC)c(OC)c2)cc1 — 0.35 log units lower, 4.72
- CSc1cccc(NC(=O)CNC(=O)c2cc3ccccc3o2)c1 — 0.73 log units lower, 4.34
- Cc1ccc(Cn2cc(-c3noc(-c4ccc[nH]4)n3)nn2)cc1 — 0.28 log units lower, 4.79
- COc1ccc(C(=O)Nc2nc(-c3ccc4c(c3)NC(=O)CO4)c(C)s2)cc1OC — 0.70 log units higher, 5.77
- CCCCc1nc2sc3c(SCC(=O)Nc4cccc(C)c4)ncnc3c2c2c1CCC2 — 0.22 log units lower, 4.85
- O=C(COC(=O)c1cc(Cl)c2c(c1)OCO2)Nc1ccc2[nH]c(=O)[nH]c2c1 — 0.46 log units higher, 5.53
- COc1ccc(CC(=O)Nc2ccc3nc(N4CCOCC4)cc(C)c3c2)cc1 — 0.48 log units lower, 4.59
- CCOc1ccccc1C(=O)Nc1ccc2c(c1)Sc1ncccc1C(=O)N2C — 0.69 log units lower, 4.38
- CCOc1ccc(-c2noc(-c3nn(-c4cccc(OC)c4)ccc3=O)n2)cc1 — 0.28 log units higher, 5.35
- Cc1ccnc(NC(=O)c2ccn(COc3ccc(Cl)cc3)n2)c1 — 0.41 log units lower, 4.66
- CC(=O)N1CCc2cc(CNC(=O)Nc3cc(C)ccc3C)ccc21 — 0.74 log units lower, 4.33
- Cc1noc(-c2cccc(=O)n2CC(=O)Nc2ccc(C)c(C)c2)n1 — 0.31 log units lower, 4.76
- COc1ccc(C(=O)Nc2sc3c(c2C(=O)NCc2cccnc2)CCCC3)cc1 — within 0.2 log units, 4.93
- COc1cc(C(=O)Nc2ccc(-c3csc(C)n3)cc2)cc(OC)c1OC — 0.32 log units higher, 5.39
- CC(C)(C)n1ncc2c(=O)n(Cc3cccc([N+](=O)[O-])c3)cnc21 — within 0.2 log units, 5.17
- O=C(CSc1nc2ccccc2n1S(=O)(=O)c1ccc(Br)cc1)Nc1ccc([N+](=O)[O-])cc1Cl — within 0.2 log units, 5.06
- COc1ccc(NC(=O)CN2C(=O)c3ccccc3Sc3ccc(C(=O)N4CCCC4)cc32)cc1OC — 0.60 log units lower, 4.47
- COc1ccc(NS(=O)(=O)c2cc(NC(=O)CCc3nc4ccccc4s3)ccc2C)cc1 — 0.45 log units lower, 4.62
- CCC/C=C\C#CC/C=C\CCCCCCCC(=O)O — 0.89 log units higher, 5.96
- CS(=O)(=O)NC1CCCN(C(=O)Nc2cccc3ccccc23)C1 (stereo unspecified) — 0.55 log units lower, 4.52
- Cc1c(C)c2ccc(OCC(=O)NCc3ccncc3)c(C)c2oc1=O — 0.76 log units lower, 4.31
- COc1ccc(NC(=O)c2nnn(-c3ccccc3C)c2C)cc1OC — 0.25 log units higher, 5.32
- Cc1ccccc1C(=O)NCCn1cc(SCC(=O)Nc2ccc3c(c2)OCCO3)c2ccccc21 — 0.62 log units lower, 4.45
- COc1cc(-c2ccno2)ccc1S(=O)(=O)Nc1ccccc1Cl — 0.30 log units higher, 5.37
- Fc1cccc(-n2cc(-c3noc(-c4ccccn4)n3)nn2)c1 — 0.45 log units lower, 4.62
- Cn1c(=O)c(C(=O)CN2CCN(c3ccc(O)cc3)CC2)c(N)n(Cc2ccccc2)c1=O — 0.76 log units lower, 4.31
- COc1cccc(NC(=O)CSc2nnc(-c3cc4cccc(OC)c4o3)n2C)c1 — 0.23 log units lower, 4.84
- CCCCc1ccc(-c2cc(C(=O)NCCN3CCOCC3)c3cc(Br)ccc3n2)cc1 — 0.24 log units lower, 4.83
- O=C(NCCN1CCCC1)C1CCN(c2cnc(N3CCCCC3)nc2)CC1 — higher, > 7.30
- O=C(NC1CCCC1)c1cccc(-c2ccc(N3CCCC3)nc2)c1 — within 0.2 log units, 5.09
- O=C(CN1C(=O)C2CCCC2=Nc2ccccc21)Nc1cc(F)ccc1F (stereo unspecified) — 0.20 log units lower, 4.87
- COc1cccc(NC(=O)c2nnn(-c3ccccc3)n2)c1 — within 0.2 log units, 5.13
- CC1CCN(c2cc(-n3cnc(C(=O)N4CCCCC4)c3)ncn2)CC1 — 0.48 log units lower, 4.59
- CCOC(=O)c1ccc(S(=O)(=O)N2CCC(C(=O)OC(C)C(=O)Nc3cccc([N+](=O)[O-])c3)CC2)cc1 (stereo unspecified) — within 0.2 log units, 5.03
- Cc1ccccc1C(=O)c1ccc(C(=O)NC2CCCCCC2)[nH]1 — within 0.2 log units, 5.13
- COCCCn1c(C(=O)NCCc2ccccc2)cc2c(=O)n3cccc(C)c3nc21 — 0.69 log units lower, 4.38
- CCN1C(=O)c2cccnc2Sc2cc(NC(=O)c3ccc(Cl)s3)ccc21 — 0.27 log units higher, 5.34
- COc1ccc(C(=O)Nc2ccc3c(c2)C(=O)N(C)c2ccccc2O3)cc1 — within 0.2 log units, 5.05
- CCc1ccc(-c2nc(SCC(=O)Nc3ccc4[nH]c(=O)[nH]c4c3)n[nH]2)cc1 — 0.44 log units lower, 4.63
- COc1ccc(NC(=O)C2CC(=O)Nc3c(-c4ccc(Cl)cc4)cnn32)c(OC)c1 (stereo unspecified) — 0.23 log units lower, 4.84
- Cc1nn(-c2ccc([N+](=O)[O-])cc2)c(C)c1-c1nc2ccccc2[nH]1 — 0.39 log units lower, 4.68
- Cc1ccc(C)c(NC(=O)CCc2nc(CSc3nc4ccccc4o3)no2)c1 — 0.20 log units lower, 4.87
